According to ChEMBL document CHEMBL4689842, “EUbOPEN Chemogenomics Library wave 1” (2021):

Tests used:
Format in all cases: toxicity, cell-based
U2OS = assay: Incucyte cell viability with U2OS; settings: human, 10 µM, compound concentration 10 uM
HEK-293T = assay: Incucyte cell viability with HEK293T; settings: human, 10 µM, compound concentration 10 uM
Fibroblast = assay: Incucyte cell viability with human fibroblast; settings: 10 µM, compound concentration 10 uM
[1] = 6 h, replicate number 1, timepoint 6 hours
[2] = 6 h, replicate number 2, timepoint 6 hours
[3] = 12 h, replicate number 1, timepoint 12 hours
[4] = 18 h, replicate number 1, timepoint 18 hours
[5] = 24 h, replicate number 1, timepoint 24 hours
[6] = 24 h, replicate number 2, timepoint 24 hours
[7] = 0 h, replicate number 1, timepoint 0 hours
[8] = 18 h, replicate number 2, timepoint 18 hours
[9] = 0 h, replicate number 2, timepoint 0 hours
[10] = 12 h, replicate number 2, timepoint 12 hours
Note: filed as whole numbers so only -1 and 0 and 1 occur.

SMILES	Growth Rate (U2OS; [1])	Growth Rate (U2OS; [2])	Growth Rate (U2OS; [3])	Growth Rate (U2OS; [4])	Growth Rate (U2OS; [5])	Growth Rate (U2OS; [6])	Growth Rate (HEK-293T; [7])	Growth Rate (HEK-293T; [1])	Growth Rate (HEK-293T; [3])	Growth Rate (HEK-293T; [4])	Growth Rate (HEK-293T; [5])	Growth Rate (Fibroblast; [7])	Growth Rate (Fibroblast; [1])	Growth Rate (Fibroblast; [2])	Growth Rate (Fibroblast; [3])	Growth Rate (Fibroblast; [4])	Growth Rate (Fibroblast; [8])	Growth Rate (Fibroblast; [5])	Growth Rate (U2OS; [7])	Growth Rate (Fibroblast; [10])	also measured
C[C@H](CO)Nc1nc(SCc2cccc(Cl)c2F)nc2[nH]c(=O)sc12	1	0	0	0	1	0	0	1	1	1	1	0	1	0	1	1	0	1	–	–	–
CCNC(=O)c1cc2c(N3CCOC[C@@H]3C)ccnc2[nH]1	1	0	0	0	0	–	1	0	0	0	0	0	0	1	1	1	0	1	1	0	Growth Rate (HEK-293T; [9]): 0; Growth Rate (Fibroblast; [6]): 0
N#Cc1c(N)nc(SCC(N)=O)c(C#N)c1-c1ccc(OCC2CC2)cc1	–	0	1	1	1	0	0	1	1	0	0	0	–	0	–	–	1	1	0	1	Growth Rate (HEK-293T; [10]): 0
CCCCN(CCCC)C(=O)CN1C[C@@H](c2ccc3c(c2)OCO3)[C@H](C(=O)O)[C@H]1c1ccc(OC)cc1	0	–	0	0	0	–	0	1	1	1	1	0	–	0	–	1	–	1	–	1	Growth Rate (HEK-293T; [8]): 0; Growth Rate (HEK-293T; [6]): 0; Growth Rate (Fibroblast; [6]): 0
CCN(CC)CCCCC1CCN(CC(=O)N2c3ccccc3C(=O)Nc3cccnc32)CC1	–	0	1	1	1	0	0	1	1	1	1	0	–	–	1	1	–	1	0	–	Growth Rate (U2OS; [8]): 0; Growth Rate (Fibroblast; [9]): 1
O=C(NCc1ccc(F)cc1)C1CCN(S(=O)(=O)c2cc(Cl)cc(Cl)c2)CC1	–	0	1	0	0	1	0	1	1	0	0	0	–	1	–	–	1	1	0	1	Growth Rate (U2OS; [10]): 0; Growth Rate (U2OS; [8]): 1; Growth Rate (HEK-293T; [10]): 0
CCCCN(CCCC)C(=O)CN1C[C@@H](c2cc(OC)c3c(c2)OCO3)[C@H](C(=O)O)[C@H]1CC(C)(C)CCC.Cl	–	0	0	0	0	1	0	0	0	0	0	–	0	–	0	0	1	0	–	1	Growth Rate (U2OS; [8]): 1; Growth Rate (Fibroblast; [9]): 0; Growth Rate (Fibroblast; [6]): 1
